Measured values reported in PubChem BioAssay (NCI).
Values joined by “and” are separate entries in the source; they are usually repeats but may differ in a detail not shown here. Equal values may be shown once.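 Values below derive from 48-hour exposures of cells grown in 96-well plates, with endpoints linearly interpolated between the two concentrations bracketing the appropriate inhibition level. Here, GI50 denotes the concentration required for 50% inhibition of growth. TGI: total growth inhibition.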

Tests used:
Assay in all cases: inhibition of tumour cell growth, NCI panel, 48 h
[1] = system: MDA-MB-435
[2] = system: SK-OV-3 ovarian
[3] = system: NCI-H226 lung
[4] = system: SNB-75 CNS
[5] = system: UACC-257 melanoma
[6] = system: MALME-3M melanoma
[7] = system: HCC-2998 colon
[8] = system: MCF7 breast
[9] = system: CCRF-CEM leukemia
[10] = system: SF-539 CNS

SMILES	GI50 [1] [µM]	TGI [1]	GI50 [2]	TGI [2]	GI50 [3]	TGI [3]	GI50 [4]	TGI [4]	GI50 [5]	TGI [5]	GI50 [6]	TGI [6]	GI50 [7]	TGI [7]	GI50 [8]	TGI [8]	GI50 [9]	TGI [9]	GI50 [10]	TGI [10]
CCCCCCOc1ccc(/C=N/Nc2cc(C)nc3ccc(Br)cc23)cc1	1.73	3.16 µM	1.66 µM	3.07 µM	1.6 µM	3.16 µM	1.84 µM	3.46 µM	1.95 µM	3.65 µM	1.87 µM	3.38 µM	2.03 µM	3.56 µM	1.64 µM	3.35 µM	1.71 µM	3.97 µM	1.87 µM	3.29 µM
COc1ccc(-c2nn(C(=O)c3cc(OC)c(OC)c(OC)c3)c3cc(N)ccc23)cc1	< 0.01	–	0.0316 µM	7.28 µM	0.15 µM	6.71 µM	< 0.0122 µM	7.76 µM	5.54 µM	39.3 µM	2.03 µM	14.8 µM	0.0349 µM	3.79 µM	0.0226 µM	2.19 µM	0.0249 µM	14.3 µM	< 0.01 µM	1.24 µM
NC(CSC(c1ccccc1)(c1ccccc1)c1ccc(Br)cc1)C(=O)O (stereo not drawn)	0.0402	0.199 µM	0.162 µM	> 72.7 µM	11.3 µM	33.4 µM	0.729 µM	> 50.8 µM	7.44 µM	> 72.8 µM	–	> 88.6 µM	0.174 µM	1.5 µM	0.0573 µM	> 51.2 µM	0.0941 µM	–	0.11 µM	13.5 µM
N[C@@H](Cc1ccc(N(CCCl)CCCl)cc1)C(=O)O	63.4	> 100 µM and 105 µM	19.3 µM and 13.9 µM	> 100 µM and 35.6 µM and 85.9 µM	44.6 µM and 26.6 µM	> 100 µM and 52.7 µM and 156 µM	16.3 µM and 14.4 µM	95.9 µM and > 51.6 µM and 123 µM	37.6 µM and 20.2 µM	> 100 µM and 58.9 µM and 119 µM	13.7 µM and 18.3 µM	30.5 µM and 35.3 µM and 66 µM	75.5 µM and 22.1 µM	> 100 µM and 62.2 µM and 95.4 µM	5.53 µM and 6.95 µM	> 100 µM and 50.4 µM and 97.2 µM	2.47 µM and 1.96 µM	78.9 µM and > 96.4 µM and 66.8 µM	6.03 µM and 4.36 µM	49.6 µM and 8.61 µM and 53.8 µM
COc1ccc(/C=C2\CCC(CN(C)C)C2=O)cc1 (stereo not drawn)	–	3.63 µM	–	31.4 µM	–	31.6 µM	–	25.6 µM	–	13.3 µM	–	11.1 µM	–	19.1 µM	–	6.03 µM	–	> 25.9 µM	–	16 µM
Nc1c2c(c(O)c3c1=C(CO)C=N3)=NCCS2=O (stereo not drawn)	1.86	3.41 µM	3.11 µM	10.9 µM	1.79 µM	4.17 µM	1.74 µM	3.18 µM	1.62 µM	3.14 µM	0.253 µM	0.739 µM	1.21 µM	2.81 µM	0.63 µM	2.83 µM	1.65 µM	13.2 µM	1.65 µM	3.06 µM
COc1ccc2c(C(=O)NCCCCCC(=O)O)cc3cc4c(cc3c2c1)OCO4	> 100	> 100 µM	> 100 µM	> 100 µM	83.5 µM	> 100 µM	23.9 µM	97.9 µM	> 100 µM	> 100 µM	> 100 µM	> 100 µM	> 100 µM	> 100 µM	> 100 µM	> 100 µM	> 100 µM	> 100 µM	> 100 µM	> 100 µM
O=C1/C=C/[C@@H](O)[C@@H]2C[C@@H](O)C[C@H]2/C=C/CCCCO1	0.338	> 26.8 µM	1.05 µM	> 100 µM	0.224 µM	–	0.17 µM	> 100 µM	0.545 µM	> 100 µM	0.321 µM	3.24 µM	0.32 µM	1.76 µM	0.327 µM	1.88 µM	0.595 µM	–	0.383 µM	> 100 µM
Cc1nc(N(C)C)nc(-c2cccc(-c3ccn(CCN(C)C)n3)c2)c1C	> 20	> 20 µM	> 20 µM	> 20 µM	> 20 µM	> 20 µM	4.04 µM	> 20 µM	> 20 µM	> 20 µM	–	–	> 20 µM	> 20 µM	> 20 µM	> 20 µM	> 20 µM	> 20 µM	> 20 µM	> 20 µM
CN(Cc1cccc(Cl)c1)c1ccc(CO)c(Cl)c1	24.3	85.5 µM	8.16 µM	28.3 µM	0.113 µM	0.284 µM	14.7 µM	49.7 µM	0.569 µM	2.15 µM	18.7 µM	42.3 µM	13.7 µM	34.1 µM	1.55 µM	15.8 µM	22.7 µM	> 73.6 µM	18.7 µM	38.7 µM
c1ccc(Oc2cnc3ccccc3n2)cc1	> 100	> 100 µM	> 100 µM	> 100 µM	28.1 µM	> 100 µM	33.8 µM	> 100 µM	> 100 µM	> 100 µM	> 100 µM	> 100 µM	> 100 µM	> 100 µM	> 100 µM	> 100 µM	> 100 µM	> 100 µM	92.3 µM	> 100 µM
O=C1COCCN1c1ccc(NCc2cn(Cc3ccc(F)cc3)c3ccccc23)cc1	14.5	32.1 µM	1.65 µM	8.14 µM	0.0593 µM	0.275 µM	2.03 µM	13 µM	0.204 µM	0.844 µM	3.47 µM	15.4 µM	11.1 µM	51.7 µM	0.114 µM	13 µM	5.4 µM	> 96.4 µM	7.36 µM	33.1 µM
CCOc1ccc(-n2cc(-c3ccc(N(C)C)cc3)[n+]3c2CCCCC3)cc1	0.217	14.4 µM	1.61 µM	7.41 µM	1.56 µM	> 100 µM	0.906 µM	17.7 µM	0.12 µM	2.44 µM	0.269 µM	14.1 µM	0.188 µM	> 100 µM	0.14 µM	> 100 µM	1.08 µM	> 100 µM	2.26 µM	> 100 µM
